In US11851411B2, “Herbicidal compounds” (SYNGENTA CROP PROTECTION AG, priority 2018, dated 2023):

Legend:
Assay type in all cases: in vivo
[1] = test system: Abutilon theophrasti (ABUTH); assay: Glasshouse herbicide test, pre-emergence; conditions: PRE Application; 500 g/h; evaluated after 13 days
Method: (§1) Seeds of a variety of test species are shown in standard soil in pots (Lolium perenne (LOLPE), Amaranthus retoflexus (AMARE), Abutilon theophrasti (ABUTH), Setaria faberi (SETFA), Echinochloa crus-galli (ECHCG), Ipomoea hederacea (IPOHE)). After cultivation for one day (pre-emergence) or after 8 days cultivation (post-emergence) under controlled conditions in a glasshouse (at 24/16° C., day/night; 14 hours light; 65% humidity), the plants are sprayed with an aqueous spray solution derived from the formulation of the technical active ingredient in acetone/water (50:50) solution containing 0.5% Tween 20 (polyoxyethelyene sorbitan monolaurate, CAS RN 9005-64-5). Compounds are applied at 500 g/h. The test plants are then grown in a glasshouse under controlled conditions in a glasshouse (at 24/16° C., day/night; 14 hours light; 65% humidity) and watered twice daily. After 13 days for pre and post-emergence, the test is evaluated for the percentage damage caused to the plant. The biological activities are shown in the following table on a five point scale (5=80-100%; 4=60-79%; 3=40-59%; 2=20-39%; 1=0-19%).

[2] = test system: Amaranthus retoflexus (AMARE); assay: Glasshouse herbicide test, pre-emergence; conditions: PRE Application; 500 g/h; evaluated after 13 days
Method: as §1

[3] = test system: Echinochloa crus-galli (ECHCG); assay: Glasshouse herbicide test, pre-emergence; conditions: PRE Application; 500 g/h; evaluated after 13 days
Method: as §1

[4] = test system: Setaria faberi (SETFA); assay: Glasshouse herbicide test, pre-emergence; conditions: PRE Application; 500 g/h; evaluated after 13 days
Method: as §1

[5] = test system: Ipomoea hederacea (IPOHE); assay: Glasshouse herbicide test, pre-emergence; conditions: PRE Application; 500 g/h; evaluated after 13 days
Method: as §1

[6] = test system: Abutilon theophrasti (ABUTH); assay: Glasshouse herbicide test, post-emergence; conditions: POST Application; 500 g/h; evaluated after 13 days
Method: as §1

[7] = test system: Amaranthus retoflexus (AMARE); assay: Glasshouse herbicide test, post-emergence; conditions: POST Application; 500 g/h; evaluated after 13 days
Method: as §1

[8] = test system: Echinochloa crus-galli (ECHCG); assay: Glasshouse herbicide test, post-emergence; conditions: POST Application; 500 g/h; evaluated after 13 days
Method: as §1

[9] = test system: Setaria faberi (SETFA); assay: Glasshouse herbicide test, post-emergence; conditions: POST Application; 500 g/h; evaluated after 13 days
Method: as §1

[10] = test system: Ipomoea hederacea (IPOHE); assay: Glasshouse herbicide test, post-emergence; conditions: POST Application; 500 g/h; evaluated after 13 days
Method: as §1

[11] = test system: Amaranthus retroflexus (AMARE); assay: Comparative experiment, post-emergence phytotoxicity; conditions: POST Application; Rate 125 g/ha
Method: (§2) A comparative experiment is conducted to show the advantage provided by the compounds of the present invention. Thus the biological performance of representative compounds 1.001, 1.043, 2.002 & 2.024 of the present invention are compared with Compound C1, which is an aniline compound of the type referred to in WO2012/028579. Results are given as (%) phytotoxicity observed.

[12] = test system: Setaria faberi (SETFA); assay: as above; conditions: POST Application; Rate 125 g/ha
Method: as §2

SMILES | percentage damage caused to the plant, five point scale, ABUTH [1] | percentage damage caused to the plant, five point scale, AMARE [2] | percentage damage caused to the plant, five point scale, ECHCG [3] | percentage damage caused to the plant, five point scale, SETFA [4] | percentage damage caused to the plant, five point scale, IPOHE [5] | percentage damage caused to the plant, five point scale, ABUTH [6] | percentage damage caused to the plant, five point scale, AMARE [7] | percentage damage caused to the plant, five point scale, ECHCG [8] | percentage damage caused to the plant, five point scale, SETFA [9] | percentage damage caused to the plant, five point scale, IPOHE [10] | (%) phytotoxicity observed, AMARE [11] [%] | (%) phytotoxicity observed, SETFA [12] [%]
CON(C(C)=O)c1c(C(F)(F)F)ccc(C(=O)Nc2nnnn2C)c1Cl [Compound 1.001, 3-[acetyl(methoxy)amino]-2-chloro-N-(1-methyltetrazol-5-yl)-4-(trifluoromethyl)benzamide] | 5 (5=80-100%) | 5 (5=80-100%) | 5 (5=80-100%) | 5 (5=80-100%) | 5 (5=80-100%) | 5 (5=80-100%) | 5 (5=80-100%) | 5 (5=80-100%) | 5 (5=80-100%) | 5 (5=80-100%) | 90 | 90
CON(C)c1c(S(C)(=O)=O)ccc(C(=O)Nc2nnnn2C)c1Cl [Compound 1.043, 2-chloro-3-[methoxy(methyl)amino]-4-methylsulfonyl-N-(1-methyltetrazol-5-yl)benzamide] | 5 (5=80-100%) | 5 (5=80-100%) | 5 (5=80-100%) | 5 (5=80-100%) | 5 (5=80-100%) | 5 (5=80-100%) | 5 (5=80-100%) | 5 (5=80-100%) | 5 (5=80-100%) | 5 (5=80-100%) | 100 | 90
CON(C(C)=O)c1c(C(F)(F)F)ccc(C(=O)Nc2nnc(C)o2)c1Cl [Compound 2.001] | 5 (5=80-100%) | 5 (5=80-100%) | 5 (5=80-100%) | 5 (5=80-100%) | 4 (4=60-79%) | 5 (5=80-100%) | 5 (5=80-100%) | 5 (5=80-100%) | 5 (5=80-100%) | 5 (5=80-100%) |  | 
CON(C(C)=O)c1c(C(F)(F)F)ccc(C(=O)Nc2nnc(C)o2)c1C [Compound 2.002] | 5 (5=80-100%) | 5 (5=80-100%) | 5 (5=80-100%) | 5 (5=80-100%) | 5 (5=80-100%) | 5 (5=80-100%) | 5 (5=80-100%) | 5 (5=80-100%) | 5 (5=80-100%) | 5 (5=80-100%) | 50 | 90
CON(C(=O)OC(C)(C)C)c1c(C(F)(F)F)ccc(C(=O)Nc2nnc(C)o2)c1Cl [Compound 2.009, tert-butyl N-[2-chloro-3-[(5-methyl-1,3,4-oxadiazol-2-yl)carbamoyl]-6-(trifluoromethyl)phenyl]-N-methoxy-carbamate] | 3 (3=40-59%) | 5 (5=80-100%) | 5 (5=80-100%) | 2 (2=20-39%) | 1 (1=0-19%) | 3 (3=40-59%) | 3 (3=40-59%) | 5 (5=80-100%) | 5 (5=80-100%) | 3 (3=40-59%) |  | 
CCC(=O)N(OC)c1c(C(F)(F)F)ccc(C(=O)Nc2nnc(C)o2)c1Cl [Compound 2.018] | 5 (5=80-100%) | 5 (5=80-100%) | 5 (5=80-100%) | 5 (5=80-100%) | 4 (4=60-79%) | 5 (5=80-100%) | 5 (5=80-100%) | 5 (5=80-100%) | 5 (5=80-100%) | 5 (5=80-100%) |  | 
CCCON(C)c1c(S(C)(=O)=O)ccc(C(=O)Nc2nnc(C)o2)c1Cl [Compound 2.024] | 5 (5=80-100%) | 5 (5=80-100%) | 5 (5=80-100%) | 5 (5=80-100%) | 5 (5=80-100%) | 5 (5=80-100%) | 5 (5=80-100%) | 5 (5=80-100%) | 5 (5=80-100%) | 5 (5=80-100%) | 80 | 80
Cn1nnnc1NC(=O)c1ccc(C(F)(F)F)c(N)c1Cl [Compound C1, reference compound] |  |  |  |  |  |  |  |  |  |  | 10 | 20
